Measured values taken from US20220128542A1, “TREATMENT EFFICIENCY EVALUATION” (TX MEDIC AB, priority 2019, published 2022).

Test system: brain of rats subjected to severe traumatic brain injury (sTBI)
Test: Ingenuity pathway analysis of differentially regulated genes after sTBI (canonical pathways, diseases and molecular functions; Example 4)
Design: species or system rat
Conditions: 2 days after TBI
Experimental: Pathway analysis of the differentially regulated genes was carried out using the Ingenuity pathway analysis package. The analysis was performed with special reference to pathways and molecular processes and diseases associated with neurodegenerative disease, including dementia, Alzheimer's disease, ALS, TBI and stroke, and with scarring and fibrosis, including glaucoma and normal pressure hydrocephalus (NPH) after subarachnoid haemorrhage.

[1] = TBI + 5 mg/kg LMW-DS relative to control

## sodium salt of dextran sulfate [LMW-DS]
TBI + 5 mg/kg LMW-DS
  Apoptosis (disease/function), z score: 0.601
  Behavior (disease/function), z score: −2.009
  Carcinoma (disease/function), z score: −2.071
  Cell death (disease/function), z score: 0.051
  Cell death of antigen presenting cells (disease/function), z score: −0.62
  Cell death of immune cells (disease/function), z score: −1
  Cell death of tumor cell lines (disease/function), z score: −1.947
  Cell movement (disease/function), z score: −3.723
  Cell movement of tumor cell lines (disease/function), z score: −2.078
  Cell proliferation of leukocyte cell lines (disease/function), z score: −2.754
  Cellular homeostasis (disease/function), z score: −3.19
  Chemotaxis (disease/function), z score: −3.642
  Concentration of prostaglandin (disease/function), z score: −0.911
  Development of vasculature (disease/function), z score: −1.534
  Digestive organ tumor (disease/function), z score: −1.149
  Digestive system cancer (disease/function), z score: −2.221
  Edema (disease/function), z score: 3.386
  Epithelial neoplasm (disease/function), z score: −1.393
  Extracranial solid tumor (disease/function), z score: −0.992
  Feeding (disease/function), z score: −0.895
  Growth of tumor (disease/function), z score: −1.233
  Hematologic cancer (disease/function), z score: −1.067
  Incidence of tumor (disease/function), z score: −0.731
  Leukocyte migration (disease/function), z score: −2.163
  Leukopoiesis (disease/function), z score: −3.549
  Locomotion (disease/function), z score: −0.039
  Lymphocyte homeostasis (disease/function), z score: −2.94
  Lymphocytic cancer (disease/function), z score: −0.48
  Lymphocytic neoplasm (disease/function), z score: −0.48
  Lymphopoiesis (disease/function), z score: −3.105
  Lymphoproliferative disorder (disease/function), z score: −0.48
  Malignant solid tumor (disease/function), z score: −1.492
  Metabolism of hormone (disease/function), z score: −1.632
  Migration of cells (disease/function), z score: −3.087
  NF-κB Signaling canonical pathway, effect: Inhibited
  Necrosis (disease/function), z score: −1.503
  Neoplasia of leukocytes (disease/function), z score: −0.48
  Non-melanoma solid tumor (disease/function), z score: −1.249
  Osteoarthritis Pathway canonical pathway, effect: Inhibited
  Proliferation of hematopoietic progenitor cells (disease/function), z score: −2.951
  Quantity of cells (disease/function), z score: −3.092
  Quantity of epithelial tissue (disease/function), z score: −0.028
  Quantity of neuroglia (disease/function), z score: −1.446
  Resorption of bone (disease/function), z score: −0.478
  Role of NFAT in Cardiac Hypertrophy canonical pathway, effect: Inhibited
  Secretion of molecule (disease/function), z score: 1.634
  Size of body (disease/function), z score: −4.771
  Synthesis of hormone (disease/function), z score: −1.632
  Transport of molecule (disease/function), z score: 0.248
  Vasculogenesis (disease/function), z score: −2.274
[1]
  Adrenomedullin Signaling pathway canonical pathway, z score: −2.236
  NF-κB Signaling canonical pathway, z score: −2
  Osteoarthritis Pathway canonical pathway, z score: −2.646
  Role of NFAT in Cardiac Hypertrophy canonical pathway, z score: −1.633
TBI + 15 mg/kg LMW-DS
  Apoptosis (disease/function), z score: −0.502
  Apoptosis of tumor cell lines (disease/function), z score: 0.09
  Behavior (disease/function), z score: −0.139
  Cell death (disease/function), z score: −0.141
  Necrosis (disease/function), z score: −0.477
  Quantity of blood cells (disease/function), z score: −0.34
  Quantity of cells (disease/function), z score: −0.797
  Quantity of lymphocytes (disease/function), z score: −0.943
  Transcription of RNA (disease/function), z score: −2.488
TBI + 1 mg/kg LMW-DS
  Effect on diseases or functions annotation: Abdominal cancer: Inhibited
  Effect on diseases or functions annotation: Abdominal carcinoma: Inhibited
  Effect on diseases or functions annotation: Abdominal neoplasm: Inhibited
  Effect on diseases or functions annotation: Activation of blood cells: Activated
  Effect on diseases or functions annotation: Activation of cells: Activated
  Effect on diseases or functions annotation: Activation of leukocytes: Activated
  Effect on diseases or functions annotation: Activation of lymphocytes: Inhibited
  Effect on diseases or functions annotation: Adhesion of tumor cell lines: Activated
  Effect on diseases or functions annotation: Apoptosis: Inhibited
